In US11844847B2, “Sulfur-containing polymerizable monomer and use thereof” (SUN MEDICAL CO., LTD., priority 2018, dated 2023):

Test: Solubility evaluation: solution stirred 0.5 hours, visually inspected for insolubles
Assay type: physicochemical
Procedure: Solutions were obtained by adding the sulfur-containing compound of the amount described in Table 1 or Table 1a to the amount described in Table 1 or Table 1a of the organic solvent or the radically polymerizable monomer.
The solutions obtained were stirred with a magnetic stirrer for 0.5 hours and were then visually inspected for the presence of insolubles. The solutions were evaluated as ◯ when the solution was transparent and free from insolubles, as Δ when the solution was turbid but free from insolubles, and as x when insolubles were present. The solubility evaluations in Tables 3 to 6 are also based on the same criteria.

[1] = 2.6 parts sulfur-containing compound in 97.4 parts IPA
[2] = 2.6 parts sulfur-containing compound in 97.4 parts MMA
[3] = 2.6 parts sulfur-containing compound in 97.4 parts acetone
[4] = 20 parts sulfur-containing compound in 80 parts acetone
[5] = 0.65 parts sulfur-containing compound in 99.35 parts IPA
[6] = added to acetone at a concentration of 20 mass %

SMILES	Solubility [1]	Solubility [2]	Solubility [3]	Solubility [4]	further results
C=C(C)C(=O)OCCOC(=O)CCC1NC(=S)NC1=O (stereo not drawn) [2-THPEM, 2-((3-(5-oxo-2-thioxoimidazolidin-4-yl)propanoyl)oxy)ethyl methacrylate]	∘	∘	∘	–	–
C=C(C)C(=O)OCCCCCCOC(=O)CCC1NC(=S)NC1=O (stereo not drawn) [6-THPHM, 6-((3-(5-oxo-2-thioxoimidazolidin-4-yl)propanoyl)oxy)hexyl methacrylate]	∘	∘	∘	–	–
C=C(C)C(=O)OCCCCCCC1NC(=S)NC1=O (stereo not drawn) [a20, 6-(5-oxo-2-thioxoimidazolidin-4-yl)hexyl methacrylate]	∘	∘	–	∘	–
C=C(C)C(=O)OCCCCCCCCCCC1NC(=S)NC1=O (stereo not drawn) [a24, 10-(5-oxo-2-thioxoimidazolidin-4-yl)decyl methacrylate]	∘	∘	–	∘	–
C=C(C)C(=O)OCCCCCCCCCC=C1NC(=S)NC1=O [a25, 10-(5-oxo-2-thioxoimidazolidin-4-ylidene)decyl methacrylate]	∘	∘	–	∘	–
C=C(C)C(=O)OCCCCCC=C1NC(=S)NC1=O [a21, 6-(5-oxo-2-thioxoimidazolidin-4-ylidene)hexyl methacrylate]	–	∘	–	–	Solubility [5]: ∘; Solubility (10 parts sulfur-containing compound in 90 parts acetone): ∘
C=C(C)C(=O)OCCCCOC(=O)CCC1NC(=S)NC1=O (stereo not drawn) [4-THPBM, 4-((3-(5-oxo-2-thioxoimidazolidin-4-yl)propanoyl)oxy)butyl methacrylate]	∘	∘	∘	–	–
C=C(C)C(=O)OCCCCCCCCCCOC(=O)CCC1NC(=S)NC1=O (stereo not drawn) [10-THPDM, 10-((3-(5-oxo-2-thioxoimidazolidin-4-yl)propanoyl)oxy)decyl methacrylate]	∘	∘	∘	∘	Solubility [5]: ∘; Solubility (0.65 parts sulfur-containing compound in 99.35 parts MMA): ∘; Solubility (0.65 parts sulfur-containing compound in 99.35 parts acetone): ∘; solubility (in words) [6]: dissolved completely
C=C(C)C(=O)OCCCCCCCC=C1NC(=S)NC1=O [a23, 8-(5-oxo-2-thioxoimidazolidin-4-ylidene)octyl methacrylate]	∘	∘	–	∘	–
C=Cc1ccc(CN(CCC)c2nc(=S)[nH]c(=S)[nH]2)cc1 [VBATDT, 6-(4-Vinylbenzyl-n-propyl)amino-1,3,5-triazine-2,4-dithione, reference compound]	–	–	∘	–	Solubility (0.5 parts sulfur-containing compound in 99.5 parts acetone): ∘; solubility (in words) [6]: generated insolubles; solubility (in words) (with respect to IPA and MMA): low solubility
